The source of these data is US11987579B2 (Duke University, priority 2018, dated 2024).

One data set deals with SW480. Put plainly: Inhibition of cell proliferation by MTS assay, SW480. It is filed as cell-based. To be noted: Homo sapiens; SW480, MTS assay at 72 hr. On the procedure: (§1) Colon cancer cell lines SW948, HT-29, HCT116, CRC240, SW480, and DLD-1 were used in the cell proliferation assay. All cell lines, except CRC240, were from ATCC. CRC240, a colorectal cancer patient derived xenograft (PDX) cell line, was obtained from the Hsu lab (Duke University). Generation of CRC240 cell line was previously reported. SW948 cells were cultured in Leibovitz's medium (Gibco, catalog number 21083-027). HT-29 and HCT116 cells were cultured in McCoy's 5A medium (Gibco, catalog number 16600-082). SW480 cells were cultured in MEM medium. CRC240 and DLD-1 cells were cultured in RPMI medium (Gibco, catalog number 11875-093). All media were supplemented with 10% FBS and 100 U/ml penicillin-streptomycin. […] IC50 values calculated using Graphpad Prism.
(Formazan colour is commonly taken as a measure of viable cells.)

A further data set deals with pAMPK. Put plainly: Evaluation of phospho-AMPK levels by Western blot. It is filed as cell-based. To be noted: CCD841Co cells, whole cell lysate, vs DMSO control. The method, then:
12-well plates were incubated with 250 μL poly-D-lysine solution (Sigma, catalog number P6407) at 10 μg/mL for 30 minutes at room, temperature, the poly-D-lysine solution was removed, and the wells washed twice with 500 μL distilled water. Colonic epithelial CCD841Co cells were cultured in MEM medium plus 1 mM sodium pyruvate (Invitrogen, catalog number 11360070), lx MEM Non-Essential Amino Acids (Gibco catalog number 11140), 10% FBS, and 100 U/ml penicillinstreptomycin. 0.27 million CCD841Co cells per well were plated in culture medium in the poly-Dlysine coated 12-well plates and allowed to attach overnight at 37° C. in a 5% CO2 incubator. The next morning, the media was replaced with DMSO vehicle in cell media, DK419 or niclosamidein DMSO diluted to the indicated concentration with DMEM medium (Sigma, catalog number D5030) supplemented with 2 mM sodium pyruvate and 2 mM L-glutamine (Invitrogen, catalog number 25030081). […] After 30 minutes treatment, the media was removed and the cells were lysed with 120 μL 1×Laemmii sample buffer. Immunoblots of the cell lysates using antibodies to phospho-AMPK (pAMPK) (Cell Signaling Technology, catalog number 2535) and AMPK (Cell Signaling Technology, catalog number 2532) was used to detect phosphorylated AMPK ([…]) levels and total AMPK levels, respectively. Antibodies to β-actin were used as loading controls.
A general note: Immunoblotting shows a protein as a band on a membrane.

The test system of another data set is Wnt/β-catenin signaling. Kind of data set: Wnt3A-stimulated TOPFlash reporter assay. The class given is cell-based. To be noted: Homo sapiens; HEK293 stably expressing TOPFlash and Renilla luciferase, Wnt3A-conditioned medium, 0.04 to 10 μM, mean±SEM, n=3; read-out: IC50, inhibition of Wnt/β-catenin signaling in TOPFlash assay. On the procedure:
Wnt-3A conditioned medium was prepared using L WNT-3A cells (ATCC® CRL-2647™) purchased from ATCC, and was obtained using published protocols (http://www.atcc.org/Products/All/CRL-2647.aspx#culturemethod). HEK293 were stably transfected with p8×TOPFlash, Renilla luciferase plasmid pRL-TK, and pLKO.1. Briefly, stably transfected cells were seeded in 100 μL of cell growth medium (MEM, Sigma, catalog number M4655) supplemented with 10% FBS (Atlanta Biologieals, catalog number S11050), and 1 μg/mL puromycin (Sigma, catalog number P8833), 100 U/mL penicillin-streptomycin (Invitrogen, catalog number 15140122)/well in 96-well plates and incubated in 5% CO2 at 37° C. overnight to 100% confluency. Fifty microliters of Wnt-3A conditioned medium containing the chemical compounds to be tested or DMSO was added to each well. After 6 h treatment, the cell were washed once with PBS and lysed with 55 μL of Passive Lysis Buffer supplied in the Dual-Luciferase Reporter Assay kit (Promega, Catalog number E1960). Twenty-five microliters of cell lysate was used for measuring luciferase activity in a […] plate reader (FluoStar Optima, BMG Labtech, Chicago, Ill.).
Background: Reporter assays use an easily measured gene product as a stand-in for the process of interest.

The test system of the next data set is CCD841Co colonic cells. Put plainly: Assessment of oxygen consumption rate (OCR), Seahorse XFp. It is filed as cell-based. Particulars: 1 μM, CCD841Co cells, basal conditions, vs DMSO. On the procedure: Colonic epithelial CCD841Co cells were plated in Seahorse XFp 8-well miniplates at 8000 cells/well and allowed to attach overnight at 37° C. in a 5% CO2 incubator. Polarographic analysis of OCR was performed using Seahorse XF Analyzer (Agilent Technologies, Santa Clara, Calif.) and a Seahorse XFp Cell Mito Stress Test Kit (Agilent Technologies, catalog number 103010-100). […] Data were analyzed by the software Wave (Version 2.3.0.20, Agilent Technologies, Santa Clara, Calif.).

The test system of the next data set is HCT116. Kind of data set: Inhibition of cell proliferation by MTS assay, HCT116. Particulars: Homo sapiens, HCT-116; HCT116, MTS assay at 72 hr. The class given is cell-based. The method, then: as §1
In another data set the test system is SW948. Put plainly: Inhibition of cell proliferation by MTS assay, SW948. It is filed as cell-based. To be noted: Homo sapiens; SW948, MTS assay at 72 hr. On the procedure: as §1
The next data set has as its system HT-29. Kind of data set: Inhibition of cell proliferation by MTS assay, HT-29. The class given is cell-based. Particulars: Homo sapiens; HT-29, MTS assay at 72 hr. The method, then:
as §1

A further data set has as its system CRC240 PDX tumors. Put plainly: CRC240 PDX xenograft tumor study. The class given is in vivo, NOD/SCID mice. Particulars: 11 days. On the procedure: The development of CRC240 PDX was previously reported (Lu et al. PLoS One 2017, 12, e0169439). Briefly, CRC240 PDX tissue were wash in PBS and then minced in PBS at 150 mg/mL. 200 μL of the PDX tissue suspension were implanted into the flanks of NOD/SCID mice. When PDX tumor volume reached about 100 mm^3, mice were randomized and were orally dosed for 11 days daily byniclosamide, DK419, or the vehicle control (10% 1-methyl-2-pyrrolidmone and 90% PEG300). […] DK419 was dissolved in the vehicle at 0.2 mg/ml and dosed at 1 mg/kg. Tumor size and body weight were measured at day 0, 4, 8, and 11. The day after the last dose, animals were euthanized and tumor samples were collected and processed for Western blot analysis. Briefly, tumor samples were lysed in RIPA Buffer (Thermofisher Scientific, catalog number 89900). Sample lysates were subjected to Western blot using antibodies to Survivin, c-Myc, and Axin2 as described above. β-actin was used as a loading control.

As for `O=C(Nc1ccc(C(F)(F)F)cc1)c1cc(Cl)cc2nc(C(F)(F)F)[nH]c12` [DK419, 6-chloro-2-(trifluoromethyl)-N-(4-(trifluoromethyl)phenyl)-1H-benzo[d]imidazole-4-carboxamide], the IC50 in the data set on SW480 stood at 0.32 µM; in the data set on Wnt/β-catenin signaling it was 0.19 ± 0.08 µM; in the data set on HCT116 it was 0.23 µM; in the data set with SW948 it was 0.04 µM; in the data set on HT-29, 0.11 µM. In addition, the “pAMPK levels by Western blot” value with pAMPK is “increased the levels of pAMPK”. Also, in the data set with CCD841Co colonic cells, the oxygen consumption rate result is listed as “increases the rate of oxygen consumption”. Also, the “growth of CRC240 PDX tumors (tumor volume)” value in the data set on CRC240 PDX tumors (1 mg/kg (2.4 μmol/kg) oral once a day, vs vehicle) is listed as “inhibited the growth of CRC240 PDX tumors compared to vehicle control”. Also, the body weight result in the data set with CRC240 PDX tumors (1 mg/kg oral once a day) was “Neither DK419 nor niclosamide produced a change in body weight”. For the same compound, in the data set with CRC240 PDX tumors (1 mg/kg oral once a day, tumors collected day after last dose, vs vehicle), the “levels of Wnt/β-catenin target genes (Axin2, Survivin, c-Myc) in tumors, Western blot” value is given as “reduced significantly”.

As to `O=C(Nc1ccc([N+](=O)[O-])cc1Cl)c1cc(Cl)ccc1O` [Niclosamide, reference compound], the IC50 in the data set on SW480 stood at 0.74 µM; in the data set with Wnt/β-catenin signaling it was 0.45 ± 0.14 µM; in the data set with HCT116, 0.31 µM; in the data set on SW948, 0.1 µM; in the data set on HT-29 it was 0.1 µM. Also, the “pAMPK levels by Western blot” value in the data set on pAMPK is listed as “increased pAMPK levels”. The oxygen consumption rate result with CCD841Co colonic cells is reported as “increases the oxygen consumption rate”. The “growth of CRC240 PDX tumors (tumor volume)” value in the data set with CRC240 PDX tumors (72 mg/kg (220 μmol/kg) oral once a day, vs vehicle) was “inhibited tumor growth”. Further, in the data set with CRC240 PDX tumors (72 mg/kg oral once a day), the body weight result was “Neither DK419 nor niclosamide produced a change in body weight”.
